Reference: ChEMBL document CHEMBL5143631, “nTZDpa (non-thiazolidinedione PPARγ partial agonist) derivatives retain antimicrobial activity without improving renal toxicity” (Bioorg Med Chem Lett, 2022)
Values after ≈ are worked out from the molar mass of the structure shown.

Tests used:
Staphylococcus aureus = assay: Antibacterial activity against Staphylococcus aureus assessed as inhibition of bacterial growth; format: functional
[1] = Toxicity in renal cells (unknown origin) assessed as cell viability at 64 ug/ml relative to control; format: cell-based; conditions: at 64 µg/mL, read-out: Activity

Row | SMILES | MIC (Staphylococcus aureus) [µg/mL] | viability at 64 ug/ml [1] [%]
1 | O=C(O)CCNC(=O)c1c(Oc2ccccc2)c2cc(Cl)ccc2n1Cc1ccc(Cl)cc1 | 4 (≈ 8.28 µM) | 20
2 | O=C(O)c1c(Oc2ccc(I)cc2)c2cc(Cl)ccc2n1-c1ccc(Cl)cc1 | 16 (≈ 30.5 µM) | 20
3 | CC(C)(C)c1ccc(Cn2c(C(=O)O)c(Oc3ccc(I)cc3)c3cc(Cl)ccc32)cc1 | 1 (≈ 1.79 µM) | 10
4 | Clc1ccc(Cn2c(-c3nnn[nH]3)c(Oc3ccccc3)c3cc(Cl)ccc32)cc1 | 8 (≈ 18.3 µM) | 20
5 | O=C(O)c1c(Oc2cccc(I)c2)c2cc(Cl)ccc2n1Cc1ccc(Cl)cc1 | 1 (≈ 1.86 µM) | 10
6 | Cc1ccc(Cn2c(C(=O)O)c(Oc3ccc(I)cc3)c3cc(Cl)ccc32)cc1 | 8 (≈ 15.5 µM) | 15
7 | Clc1ccc(Cn2c(-c3nnn[nH]3)c(Oc3ccc(I)cc3)c3cc(Cl)ccc32)cc1 | > 64 | 25
8 | O=C(O)CCNC(=O)c1c(Oc2ccc(I)cc2)c2cc(Cl)ccc2n1Cc1ccc(Cl)cc1 | 32 (≈ 52.5 µM) | 15
9 | O=C(O)c1c(Oc2cccc(I)c2)c2cc(Cl)ccc2n1Cc1ccc(Br)cc1 | 8 (≈ 13.7 µM) | 15
10 | O=C(O)c1c(Oc2ccc(I)cc2)c2cc(Cl)ccc2n1Cc1ccc(Br)cc1 | 2 (≈ 3.43 µM) | 15
11 | O=C(O)c1c(Oc2ccc(I)cc2)c2cc(Cl)ccc2n1Cc1ccc(Cl)cc1 | 1 (≈ 1.86 µM) | 15
12 | O=C(O)c1c(Oc2ccc(I)cc2)c2cc(Cl)ccc2n1Cc1ccc(Cl)c(Cl)c1 | 4 (≈ 6.99 µM) | 15
13 | CN[C@H](CC(C)C)C(=O)N[C@H]1C(=O)N[C@@H](CC(N)=O)C(=O)N[C@H]2C(=O)N[C@H]3C(=O)N[C@H](C(=O)N[C@H](C(=O)O)c4cc(O)cc(O)c4-c4cc3ccc4O)[C@H](O)c3ccc(c(Cl)c3)Oc3cc2cc(c3O[C@@H]2O[C@H](CO)[C@@H](O)[C@H](O)[C@H]2O[C@H]2C[C@](C)(N)[C@H](O)[C@H](C)O2)Oc2ccc(cc2Cl)[C@H]1O [VANCOMYCIN] | – | 65
